For experiment [1], the target named is T1, mouse Siglec-2-Fc-Avi (CD22) (Mus musculus, UniProt P35329).
T1 construct: made in house
T1 sequence (P35329 22-708 limits assumed): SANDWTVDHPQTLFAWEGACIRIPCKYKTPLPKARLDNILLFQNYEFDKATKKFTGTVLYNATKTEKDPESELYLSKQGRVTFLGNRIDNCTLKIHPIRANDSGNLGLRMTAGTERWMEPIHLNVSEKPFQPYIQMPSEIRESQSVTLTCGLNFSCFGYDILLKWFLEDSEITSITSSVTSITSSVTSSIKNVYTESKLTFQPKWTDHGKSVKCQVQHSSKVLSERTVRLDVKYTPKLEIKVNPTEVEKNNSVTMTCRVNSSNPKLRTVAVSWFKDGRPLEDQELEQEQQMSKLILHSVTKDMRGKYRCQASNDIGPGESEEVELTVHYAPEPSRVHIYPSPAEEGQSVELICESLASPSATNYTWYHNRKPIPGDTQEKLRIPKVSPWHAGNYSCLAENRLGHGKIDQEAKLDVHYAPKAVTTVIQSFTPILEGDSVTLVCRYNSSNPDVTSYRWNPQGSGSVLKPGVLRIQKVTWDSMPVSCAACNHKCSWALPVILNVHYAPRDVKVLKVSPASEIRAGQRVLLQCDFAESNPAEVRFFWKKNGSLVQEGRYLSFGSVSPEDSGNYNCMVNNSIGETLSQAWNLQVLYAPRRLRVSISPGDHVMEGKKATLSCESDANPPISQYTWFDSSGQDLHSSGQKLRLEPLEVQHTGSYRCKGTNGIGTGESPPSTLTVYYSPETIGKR
Kind of experiment: SPR binding affinity to mouse CD22. The note with it: steady-state analysis. The essentials: (§1)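 Steady-state fits gave the affinities. Before capture on a streptavidin surface, biotinylated CD22 had native sialic acids stripped (SialoExo, 4 hours, 37° C.). Running buffer: 10 mM HEPES pH 7.5, 150 mM NaCl, 0.05% Tween-20, 1% DMSO, with DMSO solvent correction.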
A general note: Surface plasmon resonance follows binding to a sensor surface in real time, without labels.

Experiment [2] has as its target T2, human Siglec-2/CD22 protein (Homo sapiens, UniProt P20273).
T2 construct: purchased Acro Biosystems SI2-H82E3
T2 sequence (P20273 20-847): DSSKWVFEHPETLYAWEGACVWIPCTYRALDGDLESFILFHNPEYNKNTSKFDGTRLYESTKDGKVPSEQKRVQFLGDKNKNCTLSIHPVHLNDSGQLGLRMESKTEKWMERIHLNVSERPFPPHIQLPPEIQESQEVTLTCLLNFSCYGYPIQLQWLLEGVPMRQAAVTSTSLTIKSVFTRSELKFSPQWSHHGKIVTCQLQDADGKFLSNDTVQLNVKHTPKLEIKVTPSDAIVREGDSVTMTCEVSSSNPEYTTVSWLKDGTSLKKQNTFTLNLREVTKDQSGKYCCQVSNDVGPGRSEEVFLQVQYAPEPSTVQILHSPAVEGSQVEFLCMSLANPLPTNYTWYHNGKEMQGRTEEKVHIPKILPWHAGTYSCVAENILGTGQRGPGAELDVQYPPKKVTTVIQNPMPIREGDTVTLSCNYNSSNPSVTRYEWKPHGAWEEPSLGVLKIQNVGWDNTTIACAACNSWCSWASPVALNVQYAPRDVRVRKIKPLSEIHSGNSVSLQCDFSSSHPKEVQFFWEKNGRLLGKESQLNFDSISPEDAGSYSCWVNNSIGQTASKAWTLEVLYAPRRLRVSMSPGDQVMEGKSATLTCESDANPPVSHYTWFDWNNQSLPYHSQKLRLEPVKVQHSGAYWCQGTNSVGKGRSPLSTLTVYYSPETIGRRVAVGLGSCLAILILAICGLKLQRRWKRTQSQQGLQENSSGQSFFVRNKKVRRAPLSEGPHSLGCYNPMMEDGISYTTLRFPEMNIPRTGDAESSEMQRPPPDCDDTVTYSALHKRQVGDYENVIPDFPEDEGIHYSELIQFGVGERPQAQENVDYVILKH
Briefly: SPR binding affinity to human CD22. The note with it: steady-state analysis. The essentials: as §1

For the next experiment, the target named is cynomolgus Siglec-2/CD22 (Macaca fascicularis, UniProt A0A2K5WCZ6). Kind of experiment: biochemical. Format: binding. As to conditions: SPR, steady-state analysis; read-out: Affinity cyno CD22. The essentials: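 SPR with desialylated (SialoExo, 4 h, 37° C.) cynomolgus CD22 amine-coupled to a CM5 chip. Running buffer 10 mM HEPES, 150 mM NaCl, 0.05% Tween-20, pH 7.5, 1% DMSO, with solvent correction; 120 s dissociation. Affinities from steady-state analysis.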

Molecules are shown by their SMILES. pKd: −log10 of the molar value.

Sequence of cynomolgus Siglec-2/CD22 (A0A2K5WCZ6 entry or part of it): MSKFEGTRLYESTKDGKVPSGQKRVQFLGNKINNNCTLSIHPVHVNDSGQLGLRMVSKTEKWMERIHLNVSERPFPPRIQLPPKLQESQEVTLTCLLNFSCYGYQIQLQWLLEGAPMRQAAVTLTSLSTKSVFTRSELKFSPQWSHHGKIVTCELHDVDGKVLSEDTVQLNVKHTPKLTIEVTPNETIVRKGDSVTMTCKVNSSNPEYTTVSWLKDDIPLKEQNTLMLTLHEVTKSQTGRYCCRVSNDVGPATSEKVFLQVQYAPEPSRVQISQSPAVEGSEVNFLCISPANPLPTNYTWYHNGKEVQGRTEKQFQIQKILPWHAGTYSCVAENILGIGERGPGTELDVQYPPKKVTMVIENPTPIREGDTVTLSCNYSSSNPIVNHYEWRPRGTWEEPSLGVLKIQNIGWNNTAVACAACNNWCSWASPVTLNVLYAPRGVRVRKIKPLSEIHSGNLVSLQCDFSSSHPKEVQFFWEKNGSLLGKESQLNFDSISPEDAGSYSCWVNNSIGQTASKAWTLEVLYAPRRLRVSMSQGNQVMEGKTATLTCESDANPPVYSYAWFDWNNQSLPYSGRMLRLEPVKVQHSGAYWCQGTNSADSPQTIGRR

For the compound `C#CCCCCCCO[C@]1(C(=O)O)C[C@H](O)[C@@H](NC(=O)CO)[C@H]([C@H](O)[C@H](O)CNC(=O)C(F)(F)c2ccccc2)O1` [Compound 42, (2R,4S,5R,6R)-6-((1R,2R)-3-(2,2-difluoro-2-phenylacetamido)-1,2-dihydroxypropyl)-4-hydroxy-5-(2-hydroxyacetamido)-2-(oct-7-yn-1-yloxy) tetrahydro-2H-pyran-2-carboxylic acid], the pKd in experiment [1] was 5.00 to 6.00; in experiment [2], above 6.00; on cynomolgus Siglec-2/CD22 it was above 6.00.

Turning to `C#CCCOc1ccc(CO[C@]2(C(=O)O)C[C@H](O)[C@@H](NC(=O)CO)[C@H]([C@H](O)[C@H](O)CNC(=O)Cc3cccc(-c4ccc(O)cc4)c3)O2)cc1` [Compound 44, (2R,4S,5R,6R)-2-((4-(but-3-yn-1-yloxy)benzyl)oxy)-6-((1R,2R)-1,2-dihydroxy-3-(2-(4′-hydroxy-[1,1′-biphenyl]-3-yl)acetamido)propyl)-4-hydroxy-5-(2-hydroxyacetamido)tetrahydro-2H-pyran-2-carboxylic acid], the pKd in experiment [1] is 5.00 to 6.00; in experiment [2], above 6.00; on cynomolgus Siglec-2/CD22 it was 5.00 to 6.00.

Regarding `C#CCCOc1ccc(CO[C@]2(C(=O)O)C[C@H](O)[C@@H](NC(=O)CO)[C@H]([C@H](O)[C@H](O)CNC(=O)Cc3cccc(-c4cccc(O)c4)c3)O2)cc1` [Compound 45, (2R,4S,5R,6R)-2-((4-(but-3-yn-1-yloxy)benzyl)oxy)-6-((1R,2R)-1,2-dihydroxy-3-(2-(3′-hydroxy-[1,1′-biphenyl]-3-yl)acetamido)propyl)-4-hydroxy-5-(2-hydroxyacetamido)tetrahydro-2H-pyran-2-carboxylic acid], the pKd was 5.00 to 6.00 in experiment [1], above 6.00 in experiment [2] and 5.00 to 6.00 at cynomolgus Siglec-2/CD22.

As to `C#CCCOc1ccc(CO[C@]2(C(=O)O)C[C@H](O)[C@@H](NC(=O)CO)[C@H]([C@H](O)[C@H](O)CNC(=O)Cc3cccc(-c4ccccc4O)c3)O2)cc1` [Compound 46, (2R,4S,5R,6R)-2-((4-(but-3-yn-1-yloxy)benzyl)oxy)-6-((1R,2R)-1,2-dihydroxy-3-(2-(2′-hydroxy-[1,1′-biphenyl]-3-yl)acetamido)propyl)-4-hydroxy-5-(2-hydroxyacetamido)tetrahydro-2H-pyran-2-carboxylic acid], the pKd was 5.00 to 6.00 in experiment [1], above 6.00 in experiment [2] and 5.00 to 6.00 at cynomolgus Siglec-2/CD22.

`C#CCOc1ccc(CO[C@]2(C(=O)O)C[C@H](O)[C@@H](NC(=O)CO)[C@H]([C@H](O)[C@H](O)CNC(=O)Cc3ccc(-c4ccc(O)cc4)c(Cl)c3)O2)cc1` [Compound 47, (2R,4S,5R,6R)-6-((1R,2R)-3-(2-(2-chloro-4′-hydroxy-[1,1′-biphenyl]-4-yl)acetamido)-1,2-dihydroxypropyl)-4-hydroxy-5-(2-hydroxyacetamido)-2-((4-(prop-2-yn-1-yloxy)benzyl)oxy)tetrahydro-2H-pyran-2-carboxylic acid]: the pKd (in experiment [1]; in experiment [2]; on cynomolgus Siglec-2/CD22) was above 6.00 in each case.

Turning to `C#CCOc1ccc(CO[C@]2(C(=O)O)C[C@H](O)[C@@H](NC(=O)CO)[C@H]([C@H](O)[C@H](O)CNC(=O)Cc3ccc(-c4ccc(F)cc4)cc3)O2)cc1` [Compound 48, (2R,4S,5R,6R)-6-((1R,2R)-3-(2-(4′-fluoro-[1,1′-biphenyl]-4-yl)acetamido)-1,2-dihydroxypropyl)-4-hydroxy-5-(2-hydroxyacetamido)-2-((4-(prop-2-yn-1-yloxy)benzyl)oxy)tetrahydro-2H-pyran-2-carboxylic acid], the results for the pKd (in experiment [1]; in experiment [2]; at cynomolgus Siglec-2/CD22) were 5.00 to 6.00, above 6.00 and 5.00 to 6.00, respectively.

On to `C#CCCCCCCS[C@]1(C(=O)O)C[C@H](O)[C@@H](NC(=O)CO)[C@H]([C@H](O)[C@H](O)CNC(=O)Cc2ccc(-c3ccc(O)cc3)cc2)O1` [Compound 49, (2S,4S,5R,6R)-6-((1R,2R)-1,2-dihydroxy-3-(2-(4′-hydroxy-[1,1′-biphenyl]-4-yl)acetamido)propyl)-4-hydroxy-5-(2-hydroxyacetamido)-2-(oct-7-yn-1-ylthio)tetrahydro-2H-pyran-2-carboxylic acid], for which the pKd (in experiment [1]; in experiment [2]; on cynomolgus Siglec-2/CD22) was above 6.00 throughout.

`C#CCCOc1ccc(CO[C@]2(C(=O)O)C[C@H](O)[C@@H](NC(=O)CO)[C@H]([C@H](O)[C@H](O)CNC(=O)Cc3ccc(-c4ccc(NC(C)=O)cc4)cc3)O2)cc1` [Compound 50, (2R,4S,5R,6R)-6-((1R,2R)-3-(2-(4′-acetamido-[1,1′-biphenyl]-4-yl)acetamido)-1,2-dihydroxypropyl)-2-((4-(but-3-yn-1-yloxy)benzyl)oxy)-4-hydroxy-5-(2-hydroxyacetamido)tetrahydro-2H-pyran-2-carboxylic acid]: the pKd was above 6.00 in experiment [1], above 6.00 in experiment [2] and 5.00 to 6.00 at cynomolgus Siglec-2/CD22.

Take `C#CCOc1ccc(CO[C@]2(C(=O)O)C[C@H](O)[C@@H](NC(=O)CO)[C@H]([C@H](O)[C@H](O)CNC(=O)Cc3ccc(-c4ccc(O)cc4)cc3OC)O2)cc1` [Compound 51, (2R,4S,5R,6R)-6-((1R,2R)-1,2-dihydroxy-3-(2-(4′-hydroxy-3-methoxy-[1,1′-biphenyl]-4-yl)acetamido)propyl)-4-hydroxy-5-(2-hydroxyacetamido)-2-((4-(prop-2-yn-1-yloxy)benzyl)oxy)tetrahydro-2H-pyran-2-carboxylic acid]: the figures for the pKd (in experiment [1]; in experiment [2]; on cynomolgus Siglec-2/CD22) were above 6.00, above 6.00 and 5.00 to 6.00, respectively.

Consider `C#CCOc1ccc(CO[C@]2(C(=O)O)C[C@H](O)[C@@H](NC(=O)CO)[C@H]([C@H](O)[C@H](O)CNC(=O)Cc3ccc(-c4ccc(O)cc4)cc3Cl)O2)cc1` [Compound 52, (2R,4S,5R,6R)-6-((1R,2R)-3-(2-(3-chloro-4′-hydroxy-[1,1′-biphenyl]-4-yl)acetamido)-1,2-dihydroxypropyl)-4-hydroxy-5-(2-hydroxyacetamido)-2-((4-(prop-2-yn-1-yloxy)benzyl)oxy)tetrahydro-2H-pyran-2-carboxylic acid], for which the results for the pKd (in experiment [1]; in experiment [2]; at cynomolgus Siglec-2/CD22) were above 6.00, above 6.00 and 5.00 to 6.00, respectively.

On to `C#CCOc1ccc(-c2cn([C@]3(C(=O)O)C[C@H](O)[C@@H](NC(=O)CO)[C@H]([C@H](O)[C@H](O)CNC(=O)Cc4ccc(-c5ccc(O)cc5)cc4)O3)nn2)cc1` [Compound 53, (2R,4S,5R,6R)-6-((1R,2R)-1,2-dihydroxy-3-(2-(4′-hydroxy-[1,1′-biphenyl]-4-yl)acetamido)propyl)-4-hydroxy-5-(2-hydroxyacetamido)-2-(4-(4-(prop-2-yn-1-yloxy)phenyl)-1H-1,2,3-triazol-1-yl)tetrahydro-2H-pyran-2-carboxylic acid], for which the pKd in experiment [1] is 5.00 to 6.00; in experiment [2], above 6.00; on cynomolgus Siglec-2/CD22 it was 5.00 to 6.00.

Consider `O=C(Cc1ccc(-c2ccc(O)cc2)cc1)NC[C@@H](O)[C@@H](O)[C@@H]1O[C@](C(=O)O)(n2cc(-c3ccccc3O)nn2)C[C@H](O)[C@H]1NC(=O)CO` [Compound 54, (2R,4S,5R,6R)-6-((1R,2R)-1,2-dihydroxy-3-(2-(4′-hydroxy-[1,1′-biphenyl]-4-yl)acetamido)propyl)-4-hydroxy-5-(2-hydroxyacetamido)-2-(4-(2-hydroxyphenyl)-1H-1,2,3-triazol-1-yl)tetrahydro-2H-pyran-2-carboxylic acid], for which the pKd in experiment [1] is below 5.00; in experiment [2] it was above 6.00; on cynomolgus Siglec-2/CD22, 5.00 to 6.00.

These data come from patent US20250064941A1, “SIGLEC LIGANDS, CONJUGATES, AND METHODS OF USE THEREOF” (Osprey Biopharmaceuticals, Inc., priority 2023, published 2025).
